Reference: ChEMBL document CHEMBL1201862, “PubChem BioAssay data set” (2004)
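Method: 48-hour compound exposure of cells in 96-well plates, five concentrations, linear interpolation of endpoints. At the GI50, growth is halved.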 The source made the active and inactive calls. Rule as the data show it: active = GI50 up to about 1.1 µM and inactive = higher.

Legend:
Assay in all cases: NCI-60 cell line screen, 48 h
786-0 = tested on: 786-0
A498 = tested on: A498
ACHN = tested on: ACHN
CAKI-1 = tested on: CAKI-1
CCRF-CEM = tested on: CCRF-CEM
COLO 205 = tested on: COLO 205
DLD-1 = tested on: DLD-1
DMS-114 = tested on: DMS-114
DMS-273 = tested on: DMS-273
EKVX = tested on: EKVX
HCT-116 = tested on: HCT-116
HCT-15 = tested on: HCT-15
HL-60 = tested on: HL-60
HOP-18 = tested on: HOP-18
HOP-62 = tested on: HOP-62
HOP-92 = tested on: HOP-92
HT-29 = tested on: HT-29
IGROV-1 = tested on: IGROV-1
K562 = tested on: K562
KM-20L2 = tested on: KM-20L2
KM12 = tested on: KM12
LOX IMVI = tested on: LOX IMVI
LXFL 529 = tested on: LXFL 529
M14 = tested on: M14
M19-MEL = tested on: M19-MEL
MOLT-4 = tested on: MOLT-4
Malme-3M = tested on: Malme-3M
NCI-H226 = tested on: NCI-H226
NCI-H23 = tested on: NCI-H23
NCI-H460 = tested on: NCI-H460
NCI-H522 = tested on: NCI-H522
OVCAR-3 = tested on: OVCAR-3
OVCAR-4 = tested on: OVCAR-4
OVCAR-5 = tested on: OVCAR-5
OVCAR-8 = tested on: OVCAR-8
RPMI-8226 = tested on: RPMI-8226
RXF 631 = tested on: RXF 631
SF-268 = tested on: SF-268
SF-295 = tested on: SF-295
SF-539 = tested on: SF-539
SK-MEL-28 = tested on: SK-MEL-28
SK-MEL-2 = tested on: SK-MEL-2
SK-MEL-5 = tested on: SK-MEL-5
SK-OV-3 = tested on: SK-OV-3
SN12C = tested on: SN12C
SNB-19 = tested on: SNB-19
SNB-75 = tested on: SNB-75
SNB-78 = tested on: SNB-78
SR = tested on: SR
SW-620 = tested on: SW-620
TK-10 = tested on: TK-10
U-251 = tested on: U-251
UACC-257 = tested on: UACC-257
UACC-62 = tested on: UACC-62
UO-31 = tested on: UO-31
XF498 = tested on: XF498
A549 = tested on: A549
HCC 2998 = tested on: HCC 2998
RXF 393 = tested on: RXF 393
BT-549 = tested on: BT-549
DU-145 = tested on: DU-145
Hs-578T = tested on: Hs-578T
MCF7 = tested on: MCF7
MDA-MB-231 = tested on: MDA-MB-231
MDA-MB-435 = tested on: MDA-MB-435
MDA-N = tested on: MDA-N
NCI/ADR-RES = tested on: NCI/ADR-RES
PC-3 = tested on: PC-3
T47D = tested on: T47D

CC1=CC(=O)NP(=O)(Oc2ccc(C)cc2)N1 (stereo not drawn)
GI50 (786-0): > 100 µM (inactive)
GI50 (A498): > 100 µM (inactive)
GI50 (ACHN): > 100 µM (inactive)
GI50 (CAKI-1): > 100 µM (inactive)
GI50 (CCRF-CEM): > 100 µM (inactive)
GI50 (COLO 205): > 100 µM (inactive)
GI50 (DLD-1): > 100 µM (inactive)
GI50 (DMS-114): > 100 µM (inactive)
GI50 (DMS-273): > 100 µM (inactive)
GI50 (EKVX): > 100 µM (inactive)
GI50 (HCT-116): > 100 µM (inactive)
GI50 (HCT-15): > 100 µM
GI50 (HL-60): > 100 µM (inactive)
GI50 (HOP-18): > 100 µM (inactive)
GI50 (HOP-62): > 100 µM (inactive)
GI50 (HOP-92): > 100 µM (inactive)
GI50 (HT-29): > 100 µM (inactive)
GI50 (IGROV-1): > 100 µM (inactive)
GI50 (K562): > 100 µM (inactive)
GI50 (KM-20L2): > 100 µM (inactive)
GI50 (KM12): > 100 µM (inactive)
GI50 (LOX IMVI): > 100 µM (inactive)
GI50 (LXFL 529): > 100 µM (inactive)
GI50 (M14): > 100 µM (inactive)
GI50 (M19-MEL): > 100 µM (inactive)
GI50 (MOLT-4): > 100 µM (inactive)
GI50 (Malme-3M): > 100 µM (inactive)
GI50 (NCI-H226): > 100 µM (inactive)
GI50 (NCI-H23): > 100 µM (inactive)
GI50 (NCI-H460): > 100 µM (inactive)
GI50 (NCI-H522): > 100 µM (inactive)
GI50 (OVCAR-3): > 100 µM (inactive)
GI50 (OVCAR-4): > 100 µM (inactive)
GI50 (OVCAR-5): > 100 µM (inactive)
GI50 (OVCAR-8): > 100 µM (inactive)
GI50 (RPMI-8226): > 100 µM (inactive)
GI50 (RXF 631): > 100 µM (inactive)
GI50 (SF-268): > 100 µM (inactive)
GI50 (SF-295): > 100 µM (inactive)
GI50 (SF-539): > 100 µM (inactive)
GI50 (SK-MEL-28): > 100 µM (inactive)
GI50 (SK-MEL-2): > 100 µM (inactive)
GI50 (SK-MEL-5): > 100 µM (inactive)
GI50 (SK-OV-3): > 100 µM (inactive)
GI50 (SN12C): > 100 µM (inactive)
GI50 (SNB-19): > 100 µM (inactive)
GI50 (SNB-75): > 100 µM (inactive)
GI50 (SNB-78): > 100 µM (inactive)
GI50 (SR): > 100 µM (inactive)
GI50 (SW-620): > 100 µM (inactive)
GI50 (TK-10): > 100 µM (inactive)
GI50 (U-251): > 100 µM (inactive)
GI50 (UACC-257): > 100 µM (inactive)
GI50 (UACC-62): > 100 µM (inactive)
GI50 (UO-31): > 100 µM (inactive)
GI50 (XF498): > 100 µM (inactive)

CCc1cccc(C)c1NC(=O)C1=C(C)NC(C)=C(C(=O)Nc2c(C)cccc2CC)C1c1ccc([N+](=O)[O-])cc1
GI50 (786-0): 72.8 µM (inactive)
GI50 (A498): 40.8 µM (inactive)
GI50 (A549): 33.5 µM (inactive)
GI50 (ACHN): 18.3 µM (inactive)
GI50 (CAKI-1): 25.5 µM (inactive)
GI50 (CCRF-CEM): 27.4 µM (inactive)
GI50 (COLO 205): 21.9 µM (inactive)
GI50 (DLD-1): 29 µM (inactive)
GI50 (DMS-273): 38.6 µM (inactive)
GI50 (EKVX): 27.8 µM (inactive)
GI50 (HCC 2998): 21.3 µM (inactive)
GI50 (HL-60): 17.9 µM (inactive)
GI50 (HOP-62): 40.1 µM (inactive)
GI50 (HOP-92): 2.75 µM (inactive)
GI50 (HT-29): 44.5 µM (inactive)
GI50 (IGROV-1): 29.6 µM (inactive)
GI50 (K562): 23.9 µM (inactive)
GI50 (KM-20L2): 39.9 µM (inactive)
GI50 (KM12): 49.9 µM (inactive)
GI50 (LOX IMVI): 40.9 µM (inactive)
GI50 (LXFL 529): 37.9 µM (inactive)
GI50 (M14): 34.8 µM (inactive)
GI50 (M19-MEL): 38.1 µM (inactive)
GI50 (MOLT-4): 11.6 µM (inactive)
GI50 (Malme-3M): 75.3 µM (inactive)
GI50 (NCI-H226): 39.8 µM (inactive)
GI50 (NCI-H23): 27.3 µM (inactive)
GI50 (NCI-H460): 28.6 µM (inactive)
GI50 (NCI-H522): 15.5 µM (inactive)
GI50 (OVCAR-3): 44.9 µM (inactive)
GI50 (OVCAR-4): 13.4 µM (inactive)
GI50 (OVCAR-5): > 100 µM (inactive)
GI50 (OVCAR-8): 49.5 µM (inactive)
GI50 (RPMI-8226): 15.3 µM (inactive)
GI50 (RXF 393): 24.4 µM (inactive)
GI50 (RXF 631): 29.1 µM (inactive)
GI50 (SF-268): 39.9 µM (inactive)
GI50 (SF-295): 58.7 µM (inactive)
GI50 (SF-539): > 100 µM (inactive)
GI50 (SK-MEL-28): 51.4 µM (inactive)
GI50 (SK-MEL-2): 35.6 µM (inactive)
GI50 (SK-MEL-5): 34 µM (inactive)
GI50 (SK-OV-3): > 100 µM (inactive)
GI50 (SN12C): 45.7 µM (inactive)
GI50 (SNB-19): 53.5 µM (inactive)
GI50 (SNB-75): 3.98 µM (inactive)
GI50 (SNB-78): 97.1 µM (inactive)
GI50 (SW-620): 72.1 µM (inactive)
GI50 (TK-10): 83.9 µM (inactive)
GI50 (U-251): 60 µM (inactive)
GI50 (UACC-257): 41.8 µM (inactive)
GI50 (UO-31): 16.3 µM (inactive)
GI50 (XF498): 19.4 µM (inactive)

Cc1nc2ccc(NCCN(C)C)c3c(=O)c4cc(O)ccc4n1c23
GI50 (786-0): 0.228 µM (active)
GI50 (A498): 1.42 µM (inactive)
GI50 (A549): 0.0933 µM (active)
GI50 (ACHN): 0.103 µM (active)
GI50 (BT-549): 3.45 µM (inactive)
GI50 (CAKI-1): 0.25 µM (active)
GI50 (CCRF-CEM): 0.0962 µM (active)
GI50 (COLO 205): 0.445 µM (active)
GI50 (DLD-1): 0.148 µM (active)
GI50 (DMS-114): 0.885 µM (active)
GI50 (DMS-273): 0.189 µM (active)
GI50 (DU-145): 1.46 µM (inactive)
GI50 (HCC 2998): 0.252 µM (active)
GI50 (HCT-116): 0.0873 µM (active)
GI50 (HCT-15): 0.394 µM
GI50 (HL-60): 0.662 µM (active)
GI50 (HOP-62): 0.433 µM (active)
GI50 (HOP-92): 1.12 µM (active)
GI50 (HT-29): 0.156 µM (active)
GI50 (Hs-578T): 0.508 µM (active)
GI50 (IGROV-1): 0.839 µM (active)
GI50 (K562): 0.298 µM (active)
GI50 (KM12): 0.783 µM (active)
GI50 (LOX IMVI): 0.379 µM (active)
GI50 (LXFL 529): 0.752 µM (active)
GI50 (M14): 2.67 µM (inactive)
GI50 (M19-MEL): 1.54 µM (inactive)
GI50 (MCF7): 0.743 µM (active)
GI50 (MDA-MB-231): 2.56 µM (inactive)
GI50 (MDA-MB-435): 1.82 µM (inactive)
GI50 (MDA-N): 1.43 µM (inactive)
GI50 (MOLT-4): 0.0164 µM (active)
GI50 (Malme-3M): 1.19 µM (inactive)
GI50 (NCI-H226): 0.109 µM (active)
GI50 (NCI-H23): 0.318 µM (active)
GI50 (NCI-H460): 0.0291 µM (active)
GI50 (NCI-H522): 0.112 µM (active)
GI50 (NCI/ADR-RES): 1.27 µM (inactive)
GI50 (OVCAR-3): 1.27 µM (inactive)
GI50 (OVCAR-4): 0.63 µM (active)
GI50 (OVCAR-5): 1.42 µM (inactive)
GI50 (OVCAR-8): 0.248 µM (active)
GI50 (PC-3): 0.653 µM (active)
GI50 (RPMI-8226): 1.19 µM (inactive)
GI50 (RXF 631): 0.0355 µM (active)
GI50 (SF-268): 0.75 µM (active)
GI50 (SF-295): 1.04 µM (active)
GI50 (SF-539): 0.733 µM (active)
GI50 (SK-MEL-28): 3.03 µM (inactive)
GI50 (SK-MEL-2): 3.35 µM (inactive)
GI50 (SK-MEL-5): 1.73 µM (inactive)
GI50 (SK-OV-3): 0.845 µM (active)
GI50 (SN12C): 0.299 µM (active)
GI50 (SNB-19): 0.281 µM (active)
GI50 (SNB-75): 0.418 µM (active)
GI50 (SR): < 0.01 µM (active)
GI50 (SW-620): 0.122 µM (active)
GI50 (T47D): 1.21 µM (inactive)
GI50 (TK-10): 2.75 µM (inactive)
GI50 (U-251): 0.352 µM (active)
GI50 (UACC-257): 3.56 µM (inactive)
GI50 (UACC-62): 1.25 µM (inactive)
GI50 (UO-31): 2.49 µM (inactive)
GI50 (XF498): 1.56 µM (inactive)
